Reference: ChEMBL document CHEMBL5506033, “Brain-Penetrant Macrocycles: Design Considerations, Future Prospects, and Call for Papers” (J Med Chem, 2024)

Legend:
[1] = Oral bioavailability in human; type: ADME, organism-based; settings: in vivo
[2] = Half life in human; type: ADME

bioavailability [1]: 81%
half-life [2]: ~25 h
SMILES: C[C@H]1Oc2cc(cnc2N)-c2c(nn(C)c2C#N)CN(C)C(=O)c2ccc(F)cc21 [LORLATINIB]
